Measured values taken from US20120065066A1, “NOVEL HERBICIDES” (SYNGENTA CROP PROTECTION LLC, priority 2009, published 2012).

Tests used:
Type in all cases: in vivo
[1] = system: Echinochloa crus-galli (ECHCG); test: Test Example B, pre-emergence herbicidal test; conditions: 312 h, evaluated after 13 days, 100=total damage to plant, 0=no damage to plant
Procedure: (§1) Seeds of a variety of test species were sown in standard soil in pots. After cultivation for one day (pre-emergence) or after 8 days cultivation (post-emergence) under controlled conditions in a glasshouse (at 24/16° C., day/night; 14 hours light; 65% humidity), the plants were sprayed with an aqueous spray solution derived from the formulation of the technical active ingredient in acetone/water (50:50) solution containing 0.5% Tween 20 (polyoxyethelyene sorbitan monolaurate, CAS RN 9005-64-5). The test plants were then grown in a glasshouse under controlled conditions in a glasshouse (at 24/16° C., day/night; 14 hours light; 65% humidity) and watered twice daily. After 13 days for pre and post-emergence, the test was evaluated (100=total damage to plant; 0=no damage to plant). Test Plants: Setaria faberi (SETFA), Alopecurus myosuroides (ALOMY), Echinochloa crus-galli (ECHCG), and Avena fatua (AVEFA).

Avena fatua (AVEFA) [2] = test: Test Example B, pre-emergence herbicidal test; conditions: 312 h, evaluated after 13 days, 100=total damage to plant, 0=no damage to plant
Procedure: as §1

[3] = system: Alopecurus myosuroides (ALOMY); test: Test Example B, pre-emergence herbicidal test; conditions: 312 h, evaluated after 13 days, 100=total damage to plant, 0=no damage to plant
Procedure: as §1

Setaria faberi (SETFA) [4] = test: Test Example B, pre-emergence herbicidal test; conditions: 250 g/ha, evaluated after 13 days, 100=total damage to plant, 0=no damage to plant
Procedure: as §1

[5] = system: Echinochloa crus-galli (ECHCG); test: Test Example B, post-emergence herbicidal test; conditions: 312 h, evaluated after 13 days, 100=total damage to plant, 0=no damage to plant
Procedure: as §1

Avena fatua (AVEFA) [6] = test: Test Example B, post-emergence herbicidal test; conditions: 312 h, evaluated after 13 days, 100=total damage to plant, 0=no damage to plant
Procedure: as §1

[7] = system: Alopecurus myosuroides (ALOMY); test: Test Example B, post-emergence herbicidal test; conditions: 312 h, evaluated after 13 days, 100=total damage to plant, 0=no damage to plant
Procedure: as §1

Setaria faberi (SETFA) [8] = test: Test Example B, post-emergence herbicidal test; conditions: 250 g/ha, evaluated after 13 days, 100=total damage to plant, 0=no damage to plant
Procedure: as §1

[9] = system: Echinochloa crus-galli (ECHCG); test: Test Example 1, post-emergence herbicidal test; conditions: 360 h, evaluated 15 days later, 100=total damage to plant, 0=no damage to plant
Procedure: (§2) Monocotyledonous and dicotyledonous test plants were sown in standard soil in pots. After cultivation for one day (pre-emergence) or after 10 days cultivation (post-emergence) under controlled conditions in a glasshouse, the plants were sprayed with an aqueous spray solution derived from the formulation of the technical active ingredient in 0.6 ml acetone and 45 ml formulation solution containing 10.6% Emulsogen EL (Registry number 61791-12-6), 42.2% N-methylpyrrolidone, 42.2% dipropylene glycol monomethyl ether (Registry number 34590-94-8) and 0.2% X-77 (Registry number 11097-66-8). The test plants were then grown in a greenhouse under optimum conditions until, 15 days later for post-emergence and 20 days for pre-emergence, the test was evaluated (100=total damage to plant; 0=no damage to plant). Test Plants: Lolium perenne (LOLPE), Setaria faberi (SETFA), Digitaria sanguinalis (DIGSA), Alopecurus myosuroides (ALOMY), Echinochloa crus-galli (ECHCG) and Avena fatua (AVEFA), Post-Emergence Data: […]

Lolium perenne (LOLPE) [10] = test: Test Example 1, post-emergence herbicidal test; conditions: 360 h, evaluated 15 days later, 100=total damage to plant, 0=no damage to plant
Procedure: as §2

Avena fatua (AVEFA) [11] = test: Test Example 1, post-emergence herbicidal test; conditions: 360 h, evaluated 15 days later, 100=total damage to plant, 0=no damage to plant
Procedure: as §2

[12] = system: Digitaria sanguinalis (DIGSA); test: Test Example 1, post-emergence herbicidal test; conditions: 360 h, evaluated 15 days later, 100=total damage to plant, 0=no damage to plant
Procedure: as §2

[13] = system: Alopecurus myosuroides (ALOMY); test: Test Example 1, post-emergence herbicidal test; conditions: 360 h, evaluated 15 days later, 100=total damage to plant, 0=no damage to plant
Procedure: as §2

Setaria faberi (SETFA) [14] = test: Test Example 1, post-emergence herbicidal test; conditions: 360 h, evaluated 15 days later, 100=total damage to plant, 0=no damage to plant, read-out: SEFTA damage to plant
Procedure: as §2

[15] = system: Echinochloa crus-galli (ECHCG); test: Test Example 1, pre-emergence herbicidal test; conditions: 480 h, evaluated 20 days later, 100=total damage to plant, 0=no damage to plant
Procedure: as §2, with “Pre-Emergence” for “Post-Emergence”

Lolium perenne (LOLPE) [16] = test: Test Example 1, pre-emergence herbicidal test; conditions: 480 h, evaluated 20 days later, 100=total damage to plant, 0=no damage to plant
Procedure: as §2, with “Pre-Emergence” for “Post-Emergence”

Avena fatua (AVEFA) [17] = test: Test Example 1, pre-emergence herbicidal test; conditions: 480 h, evaluated 20 days later, 100=total damage to plant, 0=no damage to plant
Procedure: as §2, with “Pre-Emergence” for “Post-Emergence”

[18] = system: Digitaria sanguinalis (DIGSA); test: Test Example 1, pre-emergence herbicidal test; conditions: 480 h, evaluated 20 days later, 100=total damage to plant, 0=no damage to plant
Procedure: as §2, with “Pre-Emergence” for “Post-Emergence”

[19] = system: Alopecurus myosuroides (ALOMY); test: Test Example 1, pre-emergence herbicidal test; conditions: 480 h, evaluated 20 days later, 100=total damage to plant, 0=no damage to plant
Procedure: as §2, with “Pre-Emergence” for “Post-Emergence”

Setaria faberi (SETFA) [20] = test: Test Example 1, pre-emergence herbicidal test; conditions: 480 h, evaluated 20 days later, 100=total damage to plant, 0=no damage to plant, read-out: SEFTA damage to plant
Procedure: as §2, with “Pre-Emergence” for “Post-Emergence”

Row | SMILES | pest or weed control at 250 g/ha [1] | pest or weed control at 250 g/ha (Avena fatua (AVEFA) [2]) | pest or weed control at 250 g/ha [3] | SETFA damage to plant (Setaria faberi (SETFA) [4]) | pest or weed control at 250 g/ha [5] | pest or weed control at 250 g/ha (Avena fatua (AVEFA) [6]) | pest or weed control at 250 g/ha [7] | SETFA damage to plant (Setaria faberi (SETFA) [8]) | pest or weed control at 125 g/ha [9] | pest or weed control at 125 g/ha (Lolium perenne (LOLPE) [10]) | pest or weed control at 125 g/ha (Avena fatua (AVEFA) [11]) | pest or weed control at 125 g/ha [12] | pest or weed control at 125 g/ha [13] | pest or weed control at 125 g/ha (Setaria faberi (SETFA) [14]) | pest or weed control at 250 g/ha [15] | pest or weed control at 250 g/ha (Lolium perenne (LOLPE) [16]) | pest or weed control at 250 g/ha (Avena fatua (AVEFA) [17]) | pest or weed control at 250 g/ha [18] | pest or weed control at 250 g/ha [19] | pest or weed control at 250 g/ha (Setaria faberi (SETFA) [20])
1 | CCc1ccc(-c2ccc(Cl)cc2)cc1C1=C(O)[C@H]2[C@@H]3CC[C@@H](C(=O)C3)[C@H]2C1=O (racemic) [Compound T7, rac-(3aS,4R,7R,7aR)-2-(4′-chloro-4-ethylbiphenyl-3-yl)hexahydro-4,7-ethanoindene-1,3,8-trione] | 100% | 70% | 90% | 90 | 20% | 20% | 20% | 60 | – | – | – | – | – | – | – | – | – | – | – | –
2 | CCc1ccc(-c2ccc(Cl)cc2)cc1C1=C(O)[C@H]2[C@@H]3CC[C@@H](C(=NOC)C3)[C@H]2C1=O (racemic) [Compound T9, rac-(3aS,4R,7R,7aR)-2-(4′-chloro-4-ethylbiphenyl-3-yl)hexahydro-4,7-ethanoindene-1,3,8-trione 8-(O-methyloxime)] | 0% | 0% | 0% | 0 | 90% | 60% | 70% | 100 | – | – | – | – | – | – | – | – | – | – | – | –
3 | Cc1cc(-c2ccccc2)cc(C)c1C1=C(O)[C@@H]2[C@H](C1=O)[C@@H]1C=C[C@H]2CC1 (racemic) [Compound T56, endo-(3aR,4S,7R,7aS)-2-(3,5-dimethylbiphenyl-4-yl)-3a,4,7,7a-tetrahydro-4,7-ethanoindene-1,3-dione] | 100% | 20% | 100% | 100 | 100% | 60% | 60% | 100 | – | – | – | – | – | – | – | – | – | – | – | –
4 | CCc1cc(C)cc(CC)c1C1=C(O)[C@H]2[C@H]3CC[C@H](C3)[C@H]2C1=O [Compound T49] | – | – | – | – | – | – | – | – | 100% | 100% | 80% | 100% | 100% | 100% | 100% | 100% | 70% | 100% | 100% | 100%
5 | CCc1cc(C)cc(CC)c1C1=C(O)[C@@H]2[C@H](C1=O)[C@@H]1CC[C@H]2C1=C(C)C [Compound T51] | – | – | – | – | – | – | – | – | 10% | 50% | 0% | 30% | 30% | 0% | 90% | 100% | 60% | 80% | 60% | 80%
6 | CCc1cc(C)cc(CC)c1C1=C(O)[C@@H]2[C@H](C1=O)[C@H]1CC[C@@H]2C1=C(C)C [Compound T52] | – | – | – | – | – | – | – | – | 80% | 50% | 20% | 70% | 90% | 80% | 90% | 70% | 60% | 80% | 50% | 100%
7 | Cc1cc(C)c(C2=C(O)[C@@H]3[C@H](C2=O)[C@@H]2C=C[C@H]3CC2)c(C)c1 [Compound T53] | – | – | – | – | – | – | – | – | 60% | 30% | 0% | 50% | 20% | 20% | 70% | 100% | 40% | 80% | 70% | 100%
8 | CCc1cc(C)cc(CC)c1C1=C(O)[C@H]2[C@@H]3CC[C@@H](C(=O)C3)[C@H]2C1=O [Compound T54] | – | – | – | – | – | – | – | – | 80% | 50% | 60% | 80% | 60% | 80% | 70% | 90% | 70% | 80% | 70% | 80%
9 | CCc1cc(C)cc(CC)c1C1=C(O)[C@H]2[C@H]3C=C[C@](OC)(CC3)[C@H]2C1=O [Compound T55] | – | – | – | – | – | – | – | – | 100% | 70% | 80% | 80% | 80% | 90% | 100% | 100% | 70% | 100% | 100% | 100%
10 | CCc1cc(C)cc(CC)c1C1=C(O)[C@H]2[C@H]3CC[C@](OC)(CC3)[C@H]2C1=O [Compound T57] | 100% | 100% | 100% | 100 | 100% | 30% | 70% | 100 | – | – | – | – | – | – | – | – | – | – | – | –
11 | CO/N=C1/C[C@H]2CC[C@@H]1[C@H]1C(=O)C(c3c(C)cc(C)cc3C)=C(O)[C@@H]21 [Compound T59] | 80% | 30% | 90% | 80 | 50% | 0% | 30% | 80 | – | – | – | – | – | – | – | – | – | – | – | –
